From patent US20240262848A1, “HETEROCYCLIC COMPOUNDS, COMPOSITIONS THEREOF, AND METHODS OF TREATMENT THEREWITH” (BeiGene, Ltd., priority 2022, published 2024)

Legend:
[1] = biological target: GST-tagged GDP-loaded KRAS G12V (amino acids 1-169) (Homo sapiens, UniProt P01116, G12V); assay: KRAS G12V probe displacement assay (TR-FRET); type: binding; conditions: Table 4; KRAS G12V 2 nM, biotinylated probe 2 2.5 nM
Protocol: Plates are incubated at 24 °C for 1 hr. […] After 1 hr incubation at 24° C.

[2] = system: pERK1/2(THR202/TYR204) level in SW620 cell line; assay: KRAS G12V pERK assay in SW620 cells (HTRF); type: cell-based; conditions: Homo sapiens, SW-620, Table 4, 2 hrs compound treatment
Protocol: SW620 cell line was used in this study. Cells were maintained in RPMI 1640 supplemented with 10% fetal bovine serum (Thermo Fisher), 50 units/mL penicillin and streptomycin (Thermo Fisher) and kept at 37° C. in a humidified atmosphere of 5% CO2 in air. Cells were reinstated from frozen stocks that were laid down within 30 passages from the original cells purchased. 40000 cells per well were seeded into a 96-well plate and incubated overnight. Cells were treated with a 10-point dilution series. The final compound concentration is from 0 to 10 μM. After 2 hrs compound treatment, cells were lysed, and the pERK1/2(THR202/TYR204) level in the cell lysates was detected by HTRF kit (Cisbio). In brief, a total of 16 μL of cell lysate from each well of a 96-well plate was transferred to a 384-well white assay plate. Lysate from each well was incubated with 2 μL of Eu3+-cryptate (donor) labeled anti-phospho-ERK1/2 and 2 μL of D)2 (acceptor) labeled anti-phospho-ERK1/2 antibodies (Cisbio) overnight in dark at room temperature. When donor and acceptor are in close proximity, excitation of the donor with laser triggers a Fluorescence Resonance Energy Transfer (FRET) towards the acceptor, which in turn fluoresces at 655 nm wavelength. FRET signals were measured using a PHERAstar FSX reader (BMG Labtech). IC50 determination was performed by fitting the curve of percent inhibition versus the log of the inhibitor concentration using Dotmatics.

Chain of GST-tagged GDP-loaded KRAS G12V (amino acids 1-169) (P01116 1-169 isoform P01116-2 G12V): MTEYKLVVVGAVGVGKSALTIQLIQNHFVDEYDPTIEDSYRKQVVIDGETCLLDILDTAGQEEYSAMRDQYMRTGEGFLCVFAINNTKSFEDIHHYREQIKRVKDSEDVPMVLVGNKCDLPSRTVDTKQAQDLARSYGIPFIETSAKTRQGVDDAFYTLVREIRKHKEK

SMILES	IC50 [1]	IC50 [2]
C[C@@H]1CCOc2nc(-c3cc(N)cc(Cl)c3C(F)(F)F)c(F)c3nc(OC[C@@]45CCCN4C[C@H](F)C5)nc(c23)N1C [Example 26, 3-chloro-5-((R)-4-fluoro-2-(((2R,7aS)-2-fluorotetrahydro-1H-pyrrolizin-7a(5H)-yl)methoxy)-10,11-dimethyl-8,9,10,11-tetrahydro-7-oxa-1,3,6,11-tetraazacycloocta[de]naphthalen-5-yl)-4-(trifluoromethyl)aniline]	0.79 nM	32 nM
CCN1c2nc(OCC34CCCN3CC(F)C4)nc3c(F)c(-c4cc(N)cc(Cl)c4C(F)(F)F)nc(c23)OCCC12CC2 [Example 55, 3-chloro-5-(11-ethyl-4-fluoro-2-(((2R,7aS)-2-fluorotetrahydro-1H-pyrrolizin-7a(5H)-yl)methoxy)-8,9-dihydro-11H-7-oxa-1,3,6,11-tetraazaspiro[cycloocta[de]naphthalene-10,1′-cyclopropan]-1(11a), 2,3a, 3 al(6a), 5-pentaen-5-yl)-4-(trifluoromethyl)aniline]	0.57 nM	41 nM
C#Cc1c(F)ccc2cc(O)cc(-c3cc4c5c(nc(OC[C@@]67CCCN6C[C@H](F)C7)nc5c3F)N(C)CCCO4)c12 [Example 1, 5-ethynyl-6-fluoro-4-(11-fluoro-2-(((2R,7aS)-2-fluorotetrahydro-1H-pyrrolizin-7a(5H)-yl)methoxy)-4-methyl-4,5,6,7-tetrahydro-[1,5]oxazocino[4,3,2-de]quinazolin-10-yl)naphthalen-2-ol]	3.2 nM	624 nM
CN1c2nc(OC[C@@]34CCCN3C[C@H](F)C4)nc3c(F)c(-c4cc(N)cc(Cl)c4C(F)(F)F)nc(c23)OCCC12CCC2 [Example 32, 3-chloro-5-(4′-fluoro-2′-(((2R,7aS)-2-fluorotetrahydro-1H-pyrrolizin-7a(5H)-yl)methoxy)-11′-methyl-8′,9′-dihydro-11′H-7′-oxa-1′,3′,6′,11′-tetraazaspiro[cyclobutane-1,10′-cycloocta[de]naphthalen]-1′(11a′), 2′,3a′, 3 al′(6a′), 5′-pentaen-5′-yl)-4-(trifluoromethyl)aniline]	3.4 nM	133 nM
Nc1cc(Cl)c(C(F)(F)F)c(-c2nc3c4c(nc(OC[C@@]56CCCN5C[C@H](F)C6)nc4c2F)N(C2CC2)CCCO3)c1 [Example 4, 3-chloro-5-(11-cyclopropyl-4-fluoro-2-(((2R,7aS)-2-fluorotetrahydro-1H-pyrrolizin-7a(5H)-yl)methoxy)-8,9,10,11-tetrahydro-7-oxa-1,3,6,11-tetraazacycloocta[de]naphthalen-5-yl)-4-(trifluoromethyl)aniline]	8.1 nM	549 nM
C#Cc1c(F)ccc2cc(O)cc(-c3nc4c5c(nc(OC[C@@]67CCCN6C[C@H](F)C7)nc5c3F)N(C3CC3)CCCO4)c12 [Example 5, 4-(11-cyclopropyl-4-fluoro-2-(((2R,7aS)-2-fluorotetrahydro-1H-pyrrolizin-7a(5H)-yl)methoxy)-8,9,10,11-tetrahydro-7-oxa-1,3,6,11-tetraazacycloocta[de]naphthalen-5-yl)-5-ethynyl-6-fluoronaphthalen-2-ol]	0.87 nM	288 nM
CN1CCCOc2nc(-c3cc(N)cc(Cl)c3C(F)(F)F)c(F)c3nc(OC[C@@]45CCCN4C[C@H](F)C5)nc1c23 [Example 9, 3-chloro-5-(4-fluoro-2-(((2R,7aS)-2-fluorotetrahydro-1H-pyrrolizin-7a(5H)-yl)methoxy)-11-methyl-8,9,10,11-tetrahydro-7-oxa-1,3,6,11-tetraazacycloocta[de]naphthalen-5-yl)-4-(trifluoromethyl)aniline]	5.2 nM	249 nM
CN1c2nc(OC[C@@]34CCCN3C[C@H](F)C4)nc3c(F)c(-c4cc(N)cc(Cl)c4C(F)(F)F)nc(c23)O[C@@H]2CCC[C@H](O)[C@H]21 (relative stereo) [Example 47, (7aR*,11S*,11aR*)-5-(5-amino-3-chloro-2-(trifluoromethyl)phenyl)-4-fluoro-2-(((2R,7aS)-2-fluorotetrahydro-1H-pyrrolizin-7a(5H)-yl)methoxy)-12-methyl-7a, 8,10,11,11a, 12-hexahydro-9H-7-oxa-1,3,6,12-tetraazapleiaden-11-ol]	0.61 nM	73 nM
CN1c2nc(OC[C@@]34CCCN3C[C@H](F)C4)nc3c(F)c(-c4cc(N)cc(Cl)c4C(F)(F)F)nc(c23)OCC12CCC2 [Example 24, 3-chloro-5-(4′-fluoro-2′-(((2R,7aS)-2-fluorotetrahydro-1H-pyrrolizin-7a(5H)-yl)methoxy)-10′-methyl-8′H, 10′H-7′-oxa-1′,3′,6′,10′-tetraazaspiro[cyclobutane-1,9′-cyclohepta[de]naphthalen]-1′(10a′), 2′,3a′, 3 al′(6a′), 5′-pentaen-5′-yl)-4-(trifluoromethyl)aniline]	2.6 nM	95 nM
CN1c2nc(OC[C@@]34CCCN3C[C@H](F)C4)nc3c(F)c(-c4cc(N)cc(Cl)c4C(F)(F)F)nc(c23)OCCC12CC(O)C2 (stereo partly drawn) [Example 33, 5′-(5-amino-3-chloro-2-(trifluoromethyl)phenyl)-4′-fluoro-2′-(((2R,7aS)-2-fluorotetrahydro-1H-pyrrolizin-7a(5H)-yl)methoxy)-11′-methyl-8′,9′-dihydro-11′H-7′-oxa-1′,3′,6′,11′-tetraazaspiro[cyclobutane-1,10′-cycloocta[de]naphthalen]-1′(11a′), 2′0.3a′, 3 al′(6a′), 5′-pentaen-3-ol]	0.39 nM	17 nM
CN1c2nc(OC[C@@]34CCCN3C[C@H](F)C4)nc3c(F)c(-c4cc(N)cc(Cl)c4C(F)(F)F)nc(c23)OC[C@H]2CCC[C@H]21 [Example 52, 3-chloro-5-((8aS,11aR)-4-fluoro-2-(((2R,7aS)-2-fluorotetrahydro-1H-pyrrolizin-7a(5H)-yl)methoxy)-12-methyl-8a, 9,10,11,11a, 12-hexahydro-8H-7-oxa-1,3,6,12-tetraazacyclopenta[5,6]cycloocta[1,2,3-de]naphthalen-5-yl)-4-(trifluoromethyl)aniline]	6.5 nM	158 nM
CN1c2nc(OC[C@@]34CCCN3C[C@H](F)C4)nc3c(F)c(-c4cc(N)c(F)c(Cl)c4C(F)(F)F)nc(c23)O[C@H]2COCC[C@@H]21 [Example 66, 3-chloro-2-fluoro-5-((7aR,11aS)-4-fluoro-2-(((2R,7aS)-2-fluorotetrahydro-1H-pyrrolizin-7a(5H)-yl)methoxy)-12-methyl-7a, 8,10,11,11a, 12-hexahydro-7,9-dioxa-1,3,6,12-tetraazapleiaden-5-yl)-4-(trifluoromethyl)aniline]	0.47 nM	5.8 nM
CC1CC(C)N(C)c2nc(OC[C@@]34CCCN3C[C@H](F)C4)nc3c(F)c(-c4cc(N)cc(Cl)c4C(F)(F)F)nc(c23)O1 (stereo partly drawn) [Example 21, 3-chloro-5-(4-fluoro-2-(((2R,7aS)-2-fluorotetrahydro-1H-pyrrolizin-7a(5H)-yl)methoxy)-8,10,11-trimethyl-8,9,10,11-tetrahydro-7-oxa-1,3,6,11-tetraazacycloocta[de]naphthalen-5-yl)-4-(trifluoromethyl)aniline]	1.7 nM	26 nM
Cc1c(F)c(N)cc(-c2nc3c4c(nc(OC[C@@]56CCCN5C[C@H](F)C6)nc4c2F)N(C)[C@H]2CCOC[C@@H]2O3)c1C(F)(F)F [Example 67, 2-fluoro-5-((7aR,11aS)-4-fluoro-2-(((2R,7aS)-2-fluorotetrahydro-1H-pyrrolizin-7a(5H)-yl)methoxy)-12-methyl-7a, 8,10,11,11a, 12-hexahydro-7,9-dioxa-1,3,6,12-tetraazapleiaden-5-yl)-3-methyl-4-(trifluoromethyl)aniline]	0.65 nM	12 nM
CC1CN(C)c2nc(OC[C@@]34CCCN3C[C@H](F)C4)nc3c(F)c(-c4cc(N)cc(Cl)c4C(F)(F)F)nc(c23)O1 (stereo partly drawn) [Example 12, 3-chloro-5-(4-fluoro-2-(((2R,7aS)-2-fluorotetrahydro-1H-pyrrolizin-7a(5H)-yl)methoxy)-8,10-dimethyl-9,10-dihydro-8H-7-oxa-1,3,6,10-tetraazacyclohepta[de]naphthalen-5-yl)-4-(trifluoromethyl)aniline]	3.2 nM	152 nM
CCN1c2nc(OC[C@@]34CCCN3C[C@H](F)C4)nc3c(F)c(-c4cc(N)cc(C)c4C(F)(F)F)nc(c23)O[C@H]2COCC[C@@H]21 [Example 57, 3-((7aR,11aS)-12-ethyl-4-fluoro-2-(((2R,7aS)-2-fluorotetrahydro-1H-pyrrolizin-7a(5H)-yl)methoxy)-7a, 8,10,11,11a, 12-hexahydro-7,9-dioxa-1,3,6,12-tetraazapleiaden-5-yl)-5-methyl-4-(trifluoromethyl)aniline]	0.83 nM	41 nM
